Data published in patent US20110306639A1, “HYDROCARBYLIDENE NITROHYDROZINECARBOXIMIDAMIDES AND A METHOD FOR MAKING THE SAME, AS WELL AS THEIR USES AS AN INSECTICIDE” (priority 2008, published 2011).
Where two headings read alike, the source gives them in different places.

What was measured:
[1] = test system: bemisia tabaci gennadius
[2] = test system: asparagus caterpillar
[3] = test system: myzus persicae; details: for numbers of death/total numbers: 24 h
[4] = test system: Helicoverpa armigera
[5] = test system: aphis gossypii; details: 24 h
[6] = test system: hyalopterus pruni; details: 24 h

SMILES	mortality(%) bemisia tabaci gennadius (500 μg/mL) ([1]; in vivo) [%]	mortality(%) asparagus caterpillar (500 μg/mL) ([2]; in vivo) [%]	mortality(%) myzus persicae (600 μg/mL) ([3]; in vivo) [%]	mortality(%) Helicoverpa armigera (500 μg/mL) ([4]; in vivo) [%]	further results
CNC(=N[N+](=O)[O-])NN=Cc1ccccc1OC [Compound 119]	–	–	–	–	mortality(%) bemisia tabaci gennadius (500 μg/mL) ([1]; 500 μg/mL, 48 hours): 72.00%
CNC(=N[N+](=O)[O-])NN=Cc1ccco1 [Compound 124]	88.68	–	–	–	–
COc1ccc(C=NNC(=N[N+](=O)[O-])NCc2ccc(Cl)nc2)cc1 [Compound 112]	3.77	90	54.4	10	–
CNC(=N[N+](=O)[O-])NN=Cc1ccc(F)cc1 [Compound 123]	4.69	–	–	–	–
CNC(=N[N+](=O)[O-])NN=Cc1ccccc1Cl [Compound 117]	17.78	–	–	–	–
CCCCCCC=NNC(=N[N+](=O)[O-])NCc1ccc(Cl)nc1 [Compound 50]	–	0	100	20	numbers of death/total numbers ([5]; 3.13 μg/mL): 156/157; numbers of death/total numbers ([5]; 12.5 μg/mL): 150/150; numbers of death/total numbers ([5]; 50 μg/mL): 245/245; numbers of death/total numbers ([3]; 25 μg/mL): 78/78; numbers of death/total numbers ([3]; 50 μg/mL): 91/92; numbers of death/total numbers ([3]; 100 μg/mL): 87/87; numbers of death/total numbers ([3]; 200 μg/mL): 103/107; numbers of death/total numbers ([3]; 400 μg/mL): 96/96; numbers of death/total numbers ([6]; 25 μg/mL): 104/108; numbers of death/total numbers ([6]; 50 μg/mL): 98/102; numbers of death/total numbers ([6]; 100 μg/mL): 101/101; numbers of death/total numbers ([6]; 200 μg/mL): 110/110; numbers of death/total numbers ([6]; 400 μg/mL): 102/102
CCNC(=N[N+](=O)[O-])NN=Cc1ccccc1Cl [Compound 125]	53.06	–	–	–	–
COc1ccc(C=NNC(=N[N+](=O)[O-])NCc2ccccc2)cc1 [Compound 131]	1.89	–	–	–	–
O=[N+]([O-])N=C(NCc1ccc(Cl)nc1)NN=Cc1ccco1 [Compound 115]	9.30	80	86.0	10	–
C=CCNC(=N[N+](=O)[O-])NN=Cc1ccccc1Cl [Compound 93]	–	70	96.0	40	numbers of death/total numbers ([5]; 3.13 μg/mL): 178/186; numbers of death/total numbers ([5]; 12.5 μg/mL): 124/124; numbers of death/total numbers ([5]; 50 μg/mL): 138/138; numbers of death/total numbers ([3]; 25 μg/mL): 112/112; numbers of death/total numbers ([3]; 50 μg/mL): 94/98; numbers of death/total numbers ([3]; 100 μg/mL): 104/104; numbers of death/total numbers ([3]; 200 μg/mL): 114/114; numbers of death/total numbers ([3]; 400 μg/mL): 93/93; numbers of death/total numbers ([6]; 25 μg/mL): 102/112; numbers of death/total numbers ([6]; 50 μg/mL): 104/108; numbers of death/total numbers ([6]; 100 μg/mL): 103/103; numbers of death/total numbers ([6]; 200 μg/mL): 110/110; numbers of death/total numbers ([6]; 400 μg/mL): 103/103
CCNC(=N[N+](=O)[O-])NN=Cc1ccc(OCC)c(OC)c1 [Compound 126]	6.67	–	–	–	–
O=[N+]([O-])N=C(NCc1ccc(Cl)nc1)NN=Cc1ccc(F)cc1 [Compound 114]	2.04	70	72.3	40	–
CCOc1ccc(C=NNC(=N[N+](=O)[O-])NCc2ccc(Cl)nc2)cc1OC [Compound 134]	1.82	–	–	–	–
CNC(=N[N+](=O)[O-])NN=Cc1cccc(Oc2ccccc2)c1 [Compound 118]	14.81	–	–	–	–
CCNC(=N[N+](=O)[O-])NN=Cc1ccc(F)cc1 [Compound 129]	8.62	–	–	–	–
CCCCC=NNC(=N[N+](=O)[O-])NCCC [Compound 51]	–	10	13.3	–	mortality(%) Helicoverpa armigera (500 μg/mL) ([4]; 500 μg/mL, 48 hours): 30%
CC(C)=CCCC(C)=CC=NNC(=N[N+](=O)[O-])NCc1ccccc1 [Compound 22]	–	20	7.1	20	–
CNC(=N[N+](=O)[O-])NN=CC(C)C [Compound 1, 2-isobutylidene-N-methyl-N′-nitrohydrozinecarboximidamide]	–	40	4.7	–	mortality(%) Helicoverpa armigera (500 μg/mL) ([4]; 500 μg/mL, 48 hours): 40%
C=CCNC(=N[N+](=O)[O-])NN=Cc1ccccc1OC [Compound 76]	–	80	3.4	–	mortality(%) Helicoverpa armigera (500 μg/mL) ([4]; 500 μg/mL, 48 hours): 40%
CC=CC=NNC(=N[N+](=O)[O-])NCc1ccc(Cl)nc1 [Compound 38]	–	0	1.2	30	–
C#CCNC(=N[N+](=O)[O-])NN=Cc1ccc(F)cc1 [Compound 102]	–	50	31.6	50	–

SMILES	mortality(%) bemisia tabaci gennadius (500 μg/mL) ([1]; in vivo) [%]	mortality(%) asparagus caterpillar (500 μg/mL) ([2]; in vivo) [%]	mortality(%) myzus persicae (600 μg/mL) ([3]; in vivo) [%]	mortality(%) Helicoverpa armigera (500 μg/mL) ([4]; in vivo) [%]	further results
CCCNC(=N[N+](=O)[O-])NN=Cc1ccc(OC)cc1 [Compound 130]	18.46	–	–	–	–
CCCC=NNC(=N[N+](=O)[O-])NCC [Compound 24]	–	0	4.7	–	mortality(%) Helicoverpa armigera (500 μg/mL) ([4]; 500 μg/mL, 48 hours): 40%
C#CCNC(=N[N+](=O)[O-])NN=CCCCCCC [Compound 48]	–	0	13.0	–	mortality(%) Helicoverpa armigera (500 μg/mL) ([4]; 500 μg/mL, 48 hours): 30%
CCCCC=NNC(=N[N+](=O)[O-])NCc1ccc(Cl)nc1 [Compound 56]	–	20	100	70	numbers of death/total numbers ([5]; 3.13 μg/mL): 121/157; numbers of death/total numbers ([5]; 12.5 μg/mL): 136/164; numbers of death/total numbers ([5]; 50 μg/mL): 166/178; numbers of death/total numbers ([3]; 25 μg/mL): 104/104; numbers of death/total numbers ([3]; 50 μg/mL): 96/99; numbers of death/total numbers ([3]; 100 μg/mL): 149/149; numbers of death/total numbers ([3]; 200 μg/mL): 81/81; numbers of death/total numbers ([3]; 400 μg/mL): 77/77; numbers of death/total numbers ([6]; 25 μg/mL): 100/104; numbers of death/total numbers ([6]; 50 μg/mL): 96/101; numbers of death/total numbers ([6]; 100 μg/mL): 121/121; numbers of death/total numbers ([6]; 200 μg/mL): 101/101; numbers of death/total numbers ([6]; 400 μg/mL): 103/103
O=[N+]([O-])N=C(NCc1ccc(Cl)nc1)NN=Cc1ccccc1Cl [Compound 111]	13.89	40	22.0	0	–
CCNC(=N[N+](=O)[O-])NN=CC(C)C [Compound 2]	–	50	53.6	–	mortality(%) Helicoverpa armigera (500 μg/mL) ([4]; 500 μg/mL, 48 hours): 60%
O=[N+]([O-])N=C(NCc1ccccc1)NN=Cc1ccc(F)cc1 [Compound 133]	3.77	–	–	–	–
C=CCNC(=N[N+](=O)[O-])NN=CC(C)C [Compound 5]	–	30	27.8	–	mortality(%) Helicoverpa armigera (500 μg/mL) ([4]; 500 μg/mL, 48 hours): 90%
CCOc1ccc(C=NNC(=N[N+](=O)[O-])NCc2ccccc2)cc1OC [Compound 98]	–	10	13.3	40	–
CCCCNC(=N[N+](=O)[O-])NN=Cc1ccccc1Cl [Compound 91]	–	80	1.2	0	–
CNC(=N[N+](=O)[O-])NN=Cc1ccc(N(C)C)cc1 [Compound 120]	82.76	–	–	–	–
CCCCC=NNC(=N[N+](=O)[O-])NCc1ccccc1 [Compound 55]	–	30	49.2	–	mortality(%) Helicoverpa armigera (500 μg/mL) ([4]; 500 μg/mL, 48 hours): 10%
O=[N+]([O-])N=C(NCc1ccc(Cl)nc1)NN=Cc1ccccc1 [Compound 110]	–	–	–	–	mortality(%) asparagus caterpillar (500 μg/mL) ([2]; 500 μg/mL, 48 hours): 30%; mortality(%) myzus persicae (600 μg/mL) ([3]; 600 μg/mL): 92.8%; mortality(%) bemisia tabaci gennadius (500 μg/mL) ([1]; 500 μg/mL, 48 hours): 6.67%; mortality(%) Helicoverpa armigera (500 μg/mL) ([4]; 500 μg/mL, 48 hours): 0%
C=CC=NNC(=N[N+](=O)[O-])NCC=C [Compound 42]	–	0	37.1	–	mortality(%) Helicoverpa armigera (500 μg/mL) ([4]; 500 μg/mL, 48 hours): 20%
CC=CC=NNC(=N[N+](=O)[O-])NCCC [Compound 33]	–	70	19.5	–	mortality(%) Helicoverpa armigera (500 μg/mL) ([4]; 500 μg/mL, 48 hours): 70%
CCNC(=N[N+](=O)[O-])NN=Cc1ccc(OC)cc1 [Compound 127]	24.56	–	–	–	–
CCCCNC(=N[N+](=O)[O-])NN=CC(C)C [Compound 4]	–	20	31.6	–	mortality(%) Helicoverpa armigera (500 μg/mL) ([4]; 500 μg/mL, 48 hours): 10%
CCCCNC(=N[N+](=O)[O-])NN=CC=C(C)CCC=C(C)C [Compound 19]	–	60	67.5	40	–
CNC(=N[N+](=O)[O-])NN=Cc1ccc(OC)cc1 [Compound 121]	16.95	–	–	–	–
CCOc1ccc(C=NNC(=N[N+](=O)[O-])NC)cc1OC [Compound 95]	–	80	58.0	40	–
C=CCNC(=N[N+](=O)[O-])NN=Cc1ccc(F)cc1 [Compound 101]	–	30	17.7	40	–
